Assay results reported in patent publication US20100055169A1, “CATIONIC LIPIDS AND USES THEREOF” (ABBOTT LABORATORIES, priority 2008, published 2010).

Test: Particle sizing assay (Zetasizer Nano ZS), in vivo formulations
Type: physicochemical
Conditions: lipid:siRNA 25:1
Summary of the method: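 Lipid–siRNA particles formed by ethanol injection into pH 4.0 citrate buffer at 65 °C, diluted in PBS pH 7.4, diafiltered (100K) and sterile-filtered. Size and PDI by dynamic light scattering, 633 nm He–Ne laser, 173° backscatter, 25 °C, water viscosity/refractive index.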

[1] = in vivo formulation A: Cationic lipid/Example 73/DSPC/Chol 45/10/15/30 wt %
[2] = in vivo formulation B: Cationic lipid/PEG-cholesterol/DSPC/Chol 45/10/15/30 wt %
[3] = in vivo formulation C: Cationic lipid/Pal-PEG-Cera/DSPC/Chol 45/10/15/30 wt %
[4] = in vivo formulation D: Cationic lipid/Example 66/DSPC/Chol 45/10/15/30 wt %
[5] = in vivo formulation E: Cationic lipid/Example 53/DSPC/Chol 45/10/15/30 wt %
[6] = in vivo formulation F: Cationic lipid/Example 54/DSPC/Chol 45/10/15/30 wt %
[7] = in vivo formulation G: Cationic lipid/Example 55/DSPC/Chol 45/10/15/30 wt %
[8] = in vivo formulation H: Cationic lipid/PEG-DMPE/DSPC/Chol 45/10/15/30 wt %
[9] = in vivo formulation J: Cationic lipid/PEG-DSPE/DSPC/Chol 45/10/15/30 wt %
[10] = in vivo formulation K: Cationic lipid/PEG-DMG/DSPC/Chol 45/10/15/30 wt %
[11] = in vivo formulation M: Cationic lipid/PEG-DSG/DSPC/Chol 45/10/15/30 wt %
[12] = in vivo formulation NN: Cationic lipid/Example 74/DSPC/Chol 45/10/15/30 wt %
[13] = in vivo formulation OO: Cationic lipid/Example 75/DSPC/Chol 45/10/15/30 wt %
[14] = in vivo formulation P: Cationic lipid/PEG-DSPE/DOPE/Chol 45/10/15/30 wt %
[15] = in vivo formulation PP: Cationic lipid/Example 73/Chol 45/10/45 wt %
[16] = in vivo formulation Q: Cationic lipid/PEG-DSPE/DOPC/Chol 45/10/15/30 wt %
[17] = in vivo formulation R: Cationic lipid/PEG-DSPE/SPC/Chol 45/10/15/30 wt %

- Size [1]: 96 nm
- Size distribution (PDI) [1]: (0.06)
- Size [2]: 327 nm
- Size distribution (PDI) [2]: (0.198)
- Size [3]: 141 nm
- Size distribution (PDI) [3]: (0.026)
- Size [4]: 164 nm
- Size distribution (PDI) [4]: (0.104)
- Size [5]: 169 nm
- Size distribution (PDI) [5]: (0.163)
- Size [6]: 152 nm
- Size distribution (PDI) [6]: (0.08)
- Size [7]: 164 nm
- Size distribution (PDI) [7]: (0.104)
- Size [8]: 168 nm
- Size distribution (PDI) [8]: (0.007)
- Size [9]: 119.7 nm
- Size distribution (PDI) [9]: (0.006)
- Size [10]: 155 nm
- Size distribution (PDI) [10]: (0.052)
- Size [11]: 116.5 nm
- Size distribution (PDI) [11]: (0.029)
- Size [12]: 140 nm
- Size distribution (PDI) [12]: (0.029)
- Size [13]: 142 nm
- Size distribution (PDI) [13]: (0.029)
- Size [14]: 153.7 nm
- Size distribution (PDI) [14]: (0.061)
- Size [15]: 108.7 nm
- Size distribution (PDI) [15]: (0.094)
- Size [16]: 144.1 nm
- Size distribution (PDI) [16]: (0.01)
- Size [17]: 159.6 nm
- Size distribution (PDI) [17]: (0.036)
Compound: CCCCC/C=C\C/C=C\CCCCCCCCOCC(CCN1CCCC1)OCCCCCCCC/C=C\C/C=C\CCCCC (stereo not shown) [Example 24, 1-{3,4-bis[(9Z,12Z)-octadeca-9,12-dienyloxy]butyl}pyrrolidine]
